Key:
Assay in all cases: NCI60 antitumor screening
Assay type in all cases: cell-based, human
HT29 = details: Homo sapiens, HT-29; 10 μM single dose; HT29 (colon cancer); read-out: growth inhibition percent (GI%)
NCI/ADR-RES = details: Homo sapiens; 10 μM single dose; NCI/ADR-RES (ovarian cancer); read-out: growth inhibition percent (GI%)
U251 = details: Homo sapiens, U-251; 10 μM single dose; U251 (CNS cancer); read-out: growth inhibition percent (GI%)
NCI-H522 = details: Homo sapiens; 10 μM single dose; NCI-H522 (non-small cell lung cancer); read-out: growth inhibition percent (GI%)
UO-31 = details: Homo sapiens; 10 μM single dose; UO-31 (renal cancer); read-out: growth inhibition percent (GI%)
K-562 = details: for inhibition at 10 µM: Homo sapiens, 10 μM single dose, (leukaemia), read-out: growth inhibition percent (GI%)
SNB-75 = details: for inhibition at 10 µM: Homo sapiens, 10 μM single dose, SNB-75 (CNS cancer), read-out: growth inhibition percent (GI%)
IGROV1 = details: Homo sapiens, IGROV-1; 10 μM single dose; IGROV1 (ovarian cancer); read-out: growth inhibition percent (GI%)
LOX IMVI = details: Homo sapiens; 10 μM single dose; LOX IMVI (melanoma); read-out: growth inhibition percent (GI%)
786–0 = details: for inhibition at 10 µM: Homo sapiens, 10 μM single dose, 786–0 (renal cancer), read-out: growth inhibition percent (GI%)
UACC-62 = details: Homo sapiens; 10 μM single dose; UACC-62 (melanoma); read-out: growth inhibition percent (GI%)
SW-620 = details: Homo sapiens; 10 μM single dose; SW-620 (colon cancer); read-out: growth inhibition percent (GI%)
RPMI-8226 = details: Homo sapiens; 10 μM single dose; RPMI-8226 (leukaemia); read-out: growth inhibition percent (GI%)
HOP-62 = details: for inhibition at 10 µM: Homo sapiens, 10 μM single dose, HOP-62 (non-small cell lung cancer), read-out: growth inhibition percent (GI%)
NCI-H322M = details: Homo sapiens; 10 μM single dose; NCI-H322M (non-small cell lung cancer); read-out: growth inhibition percent (GI%)
MDA-MB-468 = details: Homo sapiens; 10 μM single dose; MDA-MB-468 (breast cancer); read-out: growth inhibition percent (GI%)
SF-268 = details: Homo sapiens; 10 μM single dose; SF-268 (CNS cancer); read-out: growth inhibition percent (GI%)
HL-60(TB) = details: Homo sapiens; 10 μM single dose; HL-60(TB) (leukaemia); read-out: growth inhibition percent (GI%)
ACHN = details: Homo sapiens; 10 μM single dose; ACHN (renal cancer); read-out: growth inhibition percent (GI%)
CAKI-1 = details: Homo sapiens; 10 μM single dose; CAKI-1 (renal cancer); read-out: growth inhibition percent (GI%)
TK-10 = details: Homo sapiens; 10 μM single dose; TK-10 (renal cancer); read-out: growth inhibition percent (GI%)
HCT-15 = details: Homo sapiens; 10 μM single dose; HCT-15 (colon cancer); read-out: growth inhibition percent (GI%)
OVCAR-5 = details: Homo sapiens; 10 μM single dose; OVCAR-5 (ovarian cancer); read-out: growth inhibition percent (GI%)
HCC-2998 = details: Homo sapiens; 10 μM single dose; HCC-2998 (colon cancer); read-out: growth inhibition percent (GI%)
NCI-H460 = details: Homo sapiens; 10 μM single dose; NCI-H460 (non-small cell lung cancer); read-out: growth inhibition percent (GI%)
CCRF-CEM = details: Homo sapiens; 10 μM single dose; CCRF-CEM (leukaemia); read-out: growth inhibition percent (GI%)
A549/ATCC = details: Homo sapiens; 10 μM single dose; A549/ATCC (non-small cell lung cancer); read-out: growth inhibition percent (GI%)
SK-MEL-5 = details: Homo sapiens; 10 μM single dose; SK-MEL-5 (melanoma); read-out: growth inhibition percent (GI%)
A498 = details: Homo sapiens; 10 μM single dose; A498 (renal cancer); read-out: growth inhibition percent (GI%)
RXF 393 = details: for inhibition at 10 µM: Homo sapiens, 10 μM single dose, RXF 393 (renal cancer), read-out: growth inhibition percent (GI%)
SF-539 = details: for inhibition at 10 µM: Homo sapiens, 10 μM single dose, SF-539 (CNS cancer), read-out: growth inhibition percent (GI%)
MDA-MB-435 = details: Homo sapiens; 10 μM single dose; MDA-MB-435 (melanoma); read-out: growth inhibition percent (GI%)
MALME-3M = details: Homo sapiens; 10 μM single dose; MALME-3M (melanoma); read-out: growth inhibition percent (GI%)
OVCAR-4 = details: for inhibition at 10 µM: Homo sapiens, 10 μM single dose, OVCAR-4 (ovarian cancer), read-out: growth inhibition percent (GI%)
SNB-19 = details: Homo sapiens; 10 μM single dose; SNB-19 (CNS cancer); read-out: growth inhibition percent (GI%)
NCI-H226 = details: for inhibition at 10 µM: Homo sapiens, 10 μM single dose, NCI-H226 (non-small cell lung cancer), read-out: growth inhibition percent (GI%)
OVCAR-8 = details: Homo sapiens; 10 μM single dose; OVCAR-8 (ovarian cancer); read-out: growth inhibition percent (GI%)
MCF7 = details: Homo sapiens; 10 μM single dose; MCF7 (breast cancer); read-out: growth inhibition percent (GI%)

CN1CCN(c2nc(SCc3ccc(F)cc3)nc(-c3ccc(F)cc3)c2C#N)CC1 [4j, 2-((4-Fluorobenzyl)thio)-4-(4-fluorophenyl)-6-(4-methylpiperazin-1-yl)pyrimidine-5-carbonitrile]
inhibition at 10 µM (HT29): < 10%
inhibition at 10 µM (NCI/ADR-RES): 42.9%
inhibition at 10 µM (U251): 26.2%
inhibition at 10 µM (NCI-H522): 23.6%
inhibition at 10 µM (UO-31): 30.1%
GI% (K-562; 10 μM one-dose, Table 1): — (GI value > 70%)
inhibition at 10 µM (K-562): 18.5%
GI% (SNB-75; 10 μM one-dose, Table 1): 74.91%
inhibition at 10 µM (SNB-75): 74.9%
inhibition at 10 µM (IGROV1): 16.9%
inhibition at 10 µM (LOX IMVI): 22.9%
GI% (786–0; 10 μM one-dose, Table 1): — (GI value > 70%)
inhibition at 10 µM (786–0): 67.1%
inhibition at 10 µM (UACC-62): 22.5%
inhibition at 10 µM (SW-620): < 10%
inhibition at 10 µM (RPMI-8226): 15%
GI% (HOP-62; 10 μM one-dose, Table 1): — (GI value > 70%)
inhibition at 10 µM (HOP-62): 64.4%
inhibition at 10 µM (NCI-H322M): 24.6%
inhibition at 10 µM (MDA-MB-468): 23.6%
inhibition at 10 µM (SF-268): 15.8%
inhibition at 10 µM (HL-60(TB)): < 10%
inhibition at 10 µM (ACHN): 39.1%
inhibition at 10 µM (CAKI-1): 57.5%
inhibition at 10 µM (TK-10): 15%
inhibition at 10 µM (HCT-15): < 10%
inhibition at 10 µM (OVCAR-5): 17.4%
inhibition at 10 µM (HCC-2998): < 10%
inhibition at 10 µM (NCI-H460): < 10%
inhibition at 10 µM (CCRF-CEM): < 10%
inhibition at 10 µM (A549/ATCC): 27.7%
inhibition at 10 µM (SK-MEL-5): < 10%
inhibition at 10 µM (A498): < 10%
GI% (RXF 393; 10 μM one-dose, Table 1): 80.61%
inhibition at 10 µM (RXF 393): 80.6%
GI% (SF-539; 10 μM one-dose, Table 1): — (GI value > 70%)
inhibition at 10 µM (SF-539): 54.8%
inhibition at 10 µM (MDA-MB-435): < 10%
inhibition at 10 µM (MALME-3M): 39.5%
GI% (OVCAR-4; 10 μM one-dose, Table 1): — (GI value > 70%)
inhibition at 10 µM (OVCAR-4): 24.1%
inhibition at 10 µM (SNB-19): 40.3%
GI% (NCI-H226; 10 μM one-dose, Table 1): — (GI value > 70%)
inhibition at 10 µM (NCI-H226): 37.8%
inhibition at 10 µM (OVCAR-8): 32%
inhibition at 10 µM (MCF7): 14.8%

CN1CCN(c2nc(SCc3ccc([N+](=O)[O-])cc3)nc(-c3ccc(F)cc3)c2C#N)CC1 [4k, 4-(4-Fluorophenyl)-6-(4-methylpiperazin-1-yl)-2-((4-nitrobenzyl)thio)pyrimidine-5-carbonitrile]
inhibition at 10 µM (HT29): < 10%
inhibition at 10 µM (NCI/ADR-RES): 25.1%
inhibition at 10 µM (U251): < 10%
inhibition at 10 µM (NCI-H522): 21.3%
inhibition at 10 µM (UO-31): 40%
inhibition at 10 µM (K-562): 23.3%
inhibition at 10 µM (SNB-75): 25.7%
inhibition at 10 µM (IGROV1): < 10%
inhibition at 10 µM (LOX IMVI): 20.9%
inhibition at 10 µM (786–0): 26.4%
inhibition at 10 µM (UACC-62): 19.8%
inhibition at 10 µM (SW-620): < 10%
inhibition at 10 µM (RPMI-8226): 17.8%
inhibition at 10 µM (HOP-62): 26.3%
inhibition at 10 µM (NCI-H322M): 26.3%
inhibition at 10 µM (MDA-MB-468): 12.4%
inhibition at 10 µM (SF-268): < 10%
inhibition at 10 µM (HL-60(TB)): < 10%
inhibition at 10 µM (ACHN): 31.5%
inhibition at 10 µM (CAKI-1): 34.8%
inhibition at 10 µM (TK-10): < 10%
inhibition at 10 µM (HCT-15): 15.7%
inhibition at 10 µM (OVCAR-5): 16.8%
inhibition at 10 µM (HCC-2998): < 10%
inhibition at 10 µM (NCI-H460): < 10%
inhibition at 10 µM (CCRF-CEM): 17.5%
inhibition at 10 µM (A549/ATCC): 18.7%
inhibition at 10 µM (SK-MEL-5): 16.4%
inhibition at 10 µM (A498): < 10%
inhibition at 10 µM (RXF 393): 68.5%
inhibition at 10 µM (SF-539): 41%
inhibition at 10 µM (MDA-MB-435): < 10%
inhibition at 10 µM (MALME-3M): 27.2%
inhibition at 10 µM (OVCAR-4): < 10%
inhibition at 10 µM (SNB-19): 29.6%
inhibition at 10 µM (NCI-H226): < 10%
inhibition at 10 µM (OVCAR-8): 11.7%
inhibition at 10 µM (MCF7): 17.6%

Cc1ccc(CSc2nc(-c3ccc(F)cc3)c(C#N)c(N3CCN(C)CC3)n2)cc1 [4l, 4-(4-Fluorophenyl)-2-((4-methylbenzyl)thio)-6-(4-methylpiperazin-1-yl) pyrimidine-5-carbonitrile]
inhibition at 10 µM (HT29): 10.6%
inhibition at 10 µM (NCI/ADR-RES): 12.7%
inhibition at 10 µM (U251): < 10%
inhibition at 10 µM (NCI-H522): 33.4%
inhibition at 10 µM (UO-31): 17.6%
inhibition at 10 µM (K-562): 28.6%
inhibition at 10 µM (SNB-75): 35.6%
inhibition at 10 µM (IGROV1): < 10%
inhibition at 10 µM (LOX IMVI): 12.8%
inhibition at 10 µM (786–0): 44.2%
inhibition at 10 µM (UACC-62): 13%
inhibition at 10 µM (SW-620): < 10%
inhibition at 10 µM (RPMI-8226): 15.5%
inhibition at 10 µM (HOP-62): 12.8%
inhibition at 10 µM (NCI-H322M): 18%
inhibition at 10 µM (MDA-MB-468): < 10%
inhibition at 10 µM (SF-268): < 10%
inhibition at 10 µM (HL-60(TB)): 12.2%
inhibition at 10 µM (ACHN): 29.9%
inhibition at 10 µM (CAKI-1): 36.9%
inhibition at 10 µM (TK-10): < 10%
inhibition at 10 µM (HCT-15): 10.3%
inhibition at 10 µM (OVCAR-5): < 10%
inhibition at 10 µM (HCC-2998): < 10%
inhibition at 10 µM (NCI-H460): < 10%
inhibition at 10 µM (CCRF-CEM): 15.2%
inhibition at 10 µM (A549/ATCC): 13.1%
inhibition at 10 µM (SK-MEL-5): < 10%
inhibition at 10 µM (A498): < 10%
inhibition at 10 µM (RXF 393): 42.4%
inhibition at 10 µM (SF-539): 31.8%
inhibition at 10 µM (MDA-MB-435): < 10%
inhibition at 10 µM (MALME-3M): 11.7%
inhibition at 10 µM (OVCAR-4): < 10%
inhibition at 10 µM (SNB-19): 14.3%
inhibition at 10 µM (NCI-H226): < 10%
inhibition at 10 µM (OVCAR-8): 11.9%
inhibition at 10 µM (MCF7): 12.8%

Reference: paper PMC10620772, “Design, synthesis, and biological evaluation of new pyrimidine-5-carbonitrile derivatives as novel anti-cancer, dual EGFR^WT/COX-2 inhibitors with docking studies” (RSC Advances, 2023)
